Measured values reported in US7897371B2, “Activation of mutated RAC-PK” (Novartis AG, priority 1995, dated 2011).

How the values were obtained:
RAC-PKα [1] = test system: RAC-PKα
MAPKAP kinase-1 = MAPKAP kinase-1 activation by insulin in L6 myotubes; assay type: cell-based
From the text: (d)—As (c) except that MAPKAP kinase-1 was immunoprecipitated from the lysates and assayed with S6 peptide (filled circles).

GSK3 = assay type: cell-based
c-Raf1 = c-Raf1 (Homo sapiens, UniProt P04049); test: Protein kinase inhibition assay, c-Raf1; assay type: biochemical
Method: (§1) After incubation on ice for 10 minutes, the reaction was started by the addition of 10µL of 50 mM magnesium acetate and 0.5 mM [.gamma^32P]ATP (100-200 cpm/pmol). For the assay of mixed isoforms of PKC 20µM diacylglycerol, 0.5 mM CaCl.sub2 and 100µM phosphatidylsene were also present in the incubations. The assays were carried out for 15 minutes at 30° C., then terminated and analyzed as described. See Alessi et al., Methods Enzymol, Vol. 255, pp. 279-290 (1995). One unit of activity was that amount of enzyme that catalyzed the phosphorylation of 1 nmol os substrate in 1 minute. The final concentration of DMSO in each assay was 1% (by vol). […] Mixed isoforms of PKC were assayed using histone H1 as substrate, while MAPKAP-K11 and p70 S6 kinase were assayed using the peptide […] (SEQ ID NO: 14). See Leighton et al. (1995), supra. PK B was assayed with the peptide […] [9] (SEQ ID NO: 5) and MAPKAP-K2 was assayed with the peptide […] (SEQ ID NO: 27). See Stokoe, Caudwell, Cohen and Cohen, Biochem J, Vol. 296, Pt. 3, pp. 843-849 (1993). p42 MAP kinase was assayed using MBP, and MAPKK-1 and c-Raf1 were assayed as described in Alessi et al., Methods Enzymol (1995), supra.

p70 S6 kinase = target: T1, p70 S6 kinase (Rattus norvegicus, UniProt P67999); test: Protein kinase inhibition assay, p70 S6 kinase (peptide […] substrate); assay type: biochemical
T1 construct: from tissue; host or cells: rat liver

MAPKAP-K1β = target: T2, MAPKAP-K1β (Oryctolagus cuniculus, UniProt A0A5F9C4L9); test: Protein kinase inhibition assay, MAPKAP-K1β (peptide […] substrate); assay type: biochemical, rabbit; details: read-out: IC50, MAPKAP-K1β
T2 construct: from tissue; host or cells: rabbit skeletal muscle

PK B = PK B (Homo sapiens, UniProt P31749); test: Protein kinase inhibition assay, PK B (peptide […] substrate); assay type: biochemical
Method: as §1

MAPKAP-K2 = target: T3, MAPKAP-K2 (Homo sapiens, UniProt P49137); test: Protein kinase inhibition assay, MAPKAP-K2 (peptide […] substrate); assay type: biochemical
T3 construct: cDNA encoding residues 46-400 of human MAPKAP kinase-2 was expressed in E. coli as a GST fusion protein; GST; made in house; host or cells: E. coli
Method: as §1

mixed isoforms of PKC = test: Protein kinase inhibition assay, mixed isoforms of PKC (histone H1 substrate); assay type: biochemical
Method: as §1

p42 MAP kinase = p42 MAP kinase (Homo sapiens, UniProt P28482); test: Protein kinase inhibition assay, p42 MAP kinase (MBP substrate); assay type: biochemical
Method: as §1

MAPKK-1 = MAPKK-1 (Homo sapiens, UniProt Q02750); test: Protein kinase inhibition assay, MAPKK-1; assay type: biochemical
Method: as §1

MAPKAP kinase-2 = assay type: cell-based
RAC-PKα [2] = assay type: cell-based, human
RAC-PKα [3] = target: T4, RAC-PKα (Homo sapiens, UniProt P31749, T308A); assay type: biochemical; details: COS-1 cells
T4 construct: made in house; host or cells: COS-1 cells (DEAE-dextran transfection, serum-starved), immunoprecipitated with 12CA5 antibody

RAC-PKα [4] = assay type: biochemical, human; details: expressed in COS-1 cells, without MAPKAP kinase-2
GSK3β = assay type: cell-based, human
RAC-PKα [5] = details: 293 cells

Sequence of PK B (P31749 whole entry): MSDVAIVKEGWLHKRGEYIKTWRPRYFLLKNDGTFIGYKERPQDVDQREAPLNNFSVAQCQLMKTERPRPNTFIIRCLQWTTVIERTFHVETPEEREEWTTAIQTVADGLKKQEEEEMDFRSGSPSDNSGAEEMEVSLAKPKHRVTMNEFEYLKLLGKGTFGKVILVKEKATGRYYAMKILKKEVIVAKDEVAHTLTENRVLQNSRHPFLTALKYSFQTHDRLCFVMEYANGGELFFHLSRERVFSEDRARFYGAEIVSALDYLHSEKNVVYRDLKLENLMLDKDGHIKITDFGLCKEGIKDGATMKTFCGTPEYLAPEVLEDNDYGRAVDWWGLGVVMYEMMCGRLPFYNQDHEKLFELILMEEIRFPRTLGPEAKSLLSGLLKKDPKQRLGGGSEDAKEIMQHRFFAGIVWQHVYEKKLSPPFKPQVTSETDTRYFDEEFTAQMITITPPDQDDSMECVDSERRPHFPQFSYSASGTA
Sequence of MAPKK-1 (Q02750 whole entry, species assumed): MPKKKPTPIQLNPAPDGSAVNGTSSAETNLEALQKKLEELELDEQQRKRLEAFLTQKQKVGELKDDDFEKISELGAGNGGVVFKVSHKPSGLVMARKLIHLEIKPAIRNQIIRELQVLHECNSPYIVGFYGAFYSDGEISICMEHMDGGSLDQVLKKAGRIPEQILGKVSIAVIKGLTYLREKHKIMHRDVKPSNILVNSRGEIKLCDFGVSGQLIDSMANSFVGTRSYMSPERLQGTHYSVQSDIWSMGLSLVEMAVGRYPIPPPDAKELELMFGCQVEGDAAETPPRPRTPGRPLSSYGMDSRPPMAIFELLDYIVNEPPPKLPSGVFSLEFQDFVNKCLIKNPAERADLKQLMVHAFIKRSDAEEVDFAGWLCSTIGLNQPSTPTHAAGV
T2 sequence (A0A5F9C4L9 1-740): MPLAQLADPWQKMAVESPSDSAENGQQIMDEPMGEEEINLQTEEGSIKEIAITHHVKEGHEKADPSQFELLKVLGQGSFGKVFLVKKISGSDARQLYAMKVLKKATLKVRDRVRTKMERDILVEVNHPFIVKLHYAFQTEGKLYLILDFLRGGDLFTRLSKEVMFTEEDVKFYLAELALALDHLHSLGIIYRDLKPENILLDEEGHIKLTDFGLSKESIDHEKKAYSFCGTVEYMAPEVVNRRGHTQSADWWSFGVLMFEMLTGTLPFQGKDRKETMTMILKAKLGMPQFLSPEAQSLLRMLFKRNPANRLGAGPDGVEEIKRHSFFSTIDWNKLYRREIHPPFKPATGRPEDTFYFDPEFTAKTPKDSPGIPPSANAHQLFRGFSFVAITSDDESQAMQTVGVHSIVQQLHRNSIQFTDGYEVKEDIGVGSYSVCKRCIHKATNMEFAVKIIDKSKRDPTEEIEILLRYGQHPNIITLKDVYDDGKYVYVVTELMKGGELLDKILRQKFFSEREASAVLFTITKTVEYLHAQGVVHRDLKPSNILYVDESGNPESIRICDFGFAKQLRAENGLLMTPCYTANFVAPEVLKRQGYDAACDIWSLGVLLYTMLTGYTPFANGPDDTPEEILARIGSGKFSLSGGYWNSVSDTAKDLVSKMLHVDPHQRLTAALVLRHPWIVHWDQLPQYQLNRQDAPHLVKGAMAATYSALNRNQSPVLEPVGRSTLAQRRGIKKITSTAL
T3 sequence (P49137 46-400): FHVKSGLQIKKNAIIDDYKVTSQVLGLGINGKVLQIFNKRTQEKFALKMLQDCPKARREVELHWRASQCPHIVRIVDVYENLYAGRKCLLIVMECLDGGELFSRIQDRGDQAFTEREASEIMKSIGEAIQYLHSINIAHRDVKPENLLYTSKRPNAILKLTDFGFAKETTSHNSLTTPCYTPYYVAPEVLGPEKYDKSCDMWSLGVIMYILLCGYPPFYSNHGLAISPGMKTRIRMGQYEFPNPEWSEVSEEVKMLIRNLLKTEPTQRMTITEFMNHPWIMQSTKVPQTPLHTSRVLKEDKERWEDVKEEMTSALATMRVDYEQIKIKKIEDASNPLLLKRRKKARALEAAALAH
Sequence of p42 MAP kinase (P28482 whole entry): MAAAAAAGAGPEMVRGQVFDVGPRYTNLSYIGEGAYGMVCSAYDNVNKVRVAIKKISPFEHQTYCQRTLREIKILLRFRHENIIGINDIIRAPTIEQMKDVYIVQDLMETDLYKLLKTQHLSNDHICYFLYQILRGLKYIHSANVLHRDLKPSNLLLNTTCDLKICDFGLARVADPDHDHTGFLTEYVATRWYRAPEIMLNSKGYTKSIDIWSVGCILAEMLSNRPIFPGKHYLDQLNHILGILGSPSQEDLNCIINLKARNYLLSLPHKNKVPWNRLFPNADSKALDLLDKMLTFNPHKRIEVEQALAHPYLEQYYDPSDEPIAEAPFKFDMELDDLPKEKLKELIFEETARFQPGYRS
T1 sequence (P67999 24-525): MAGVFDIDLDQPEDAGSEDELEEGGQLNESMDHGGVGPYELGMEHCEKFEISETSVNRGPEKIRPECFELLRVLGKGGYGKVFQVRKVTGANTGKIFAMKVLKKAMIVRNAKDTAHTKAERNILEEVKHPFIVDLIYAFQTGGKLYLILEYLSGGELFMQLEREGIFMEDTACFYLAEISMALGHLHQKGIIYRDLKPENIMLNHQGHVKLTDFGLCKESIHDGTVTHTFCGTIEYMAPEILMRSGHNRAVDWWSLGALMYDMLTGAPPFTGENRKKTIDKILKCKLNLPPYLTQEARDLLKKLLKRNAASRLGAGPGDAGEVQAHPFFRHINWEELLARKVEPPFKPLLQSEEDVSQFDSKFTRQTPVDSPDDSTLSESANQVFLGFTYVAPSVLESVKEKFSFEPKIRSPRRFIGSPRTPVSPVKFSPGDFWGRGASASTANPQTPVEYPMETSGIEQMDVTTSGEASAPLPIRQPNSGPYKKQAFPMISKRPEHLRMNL
Sequence of c-Raf1 (P04049 whole entry, canonical isoform): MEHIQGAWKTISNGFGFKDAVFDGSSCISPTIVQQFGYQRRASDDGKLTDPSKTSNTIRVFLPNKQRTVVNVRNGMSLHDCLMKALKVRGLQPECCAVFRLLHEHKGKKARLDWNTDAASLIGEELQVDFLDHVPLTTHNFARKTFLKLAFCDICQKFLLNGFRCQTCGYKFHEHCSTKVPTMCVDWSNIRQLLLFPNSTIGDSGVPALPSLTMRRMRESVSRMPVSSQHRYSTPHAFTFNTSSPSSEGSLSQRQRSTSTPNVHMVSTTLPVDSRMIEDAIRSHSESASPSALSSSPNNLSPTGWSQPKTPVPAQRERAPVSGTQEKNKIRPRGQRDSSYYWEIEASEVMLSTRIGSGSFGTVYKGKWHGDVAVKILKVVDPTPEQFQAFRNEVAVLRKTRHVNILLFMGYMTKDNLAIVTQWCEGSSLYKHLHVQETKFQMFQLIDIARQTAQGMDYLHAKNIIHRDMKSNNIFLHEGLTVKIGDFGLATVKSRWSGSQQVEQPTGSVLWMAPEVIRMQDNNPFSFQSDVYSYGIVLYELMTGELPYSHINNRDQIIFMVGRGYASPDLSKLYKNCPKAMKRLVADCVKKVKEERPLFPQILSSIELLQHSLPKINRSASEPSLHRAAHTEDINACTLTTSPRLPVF
T4 sequence (P31749 whole entry T308A): as the sequence (P31749 whole entry) above, with T308A counted along it
Sequence of GSK3β (P49841 whole entry): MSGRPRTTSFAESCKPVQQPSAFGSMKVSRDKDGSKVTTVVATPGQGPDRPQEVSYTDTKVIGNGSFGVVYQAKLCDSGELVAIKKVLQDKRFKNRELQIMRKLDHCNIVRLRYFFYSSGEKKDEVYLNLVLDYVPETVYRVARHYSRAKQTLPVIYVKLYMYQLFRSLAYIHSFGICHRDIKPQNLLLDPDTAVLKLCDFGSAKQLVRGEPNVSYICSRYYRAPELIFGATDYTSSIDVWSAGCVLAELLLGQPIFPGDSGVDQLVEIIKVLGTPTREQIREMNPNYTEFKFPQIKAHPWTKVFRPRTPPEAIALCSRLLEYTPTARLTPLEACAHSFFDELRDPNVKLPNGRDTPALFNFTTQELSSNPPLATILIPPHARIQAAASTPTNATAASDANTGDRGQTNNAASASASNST

COc1cccc(-c2cc(=O)c3ccccc3o2)c1N [PD 98059]
Effect on insulin activation of RAC-PK (RAC-PKα [1]): essentially unaffected
Effect on activation of MAPKAP kinase-1 (MAPKAP kinase-1): prevented
Effect on inhibition of GSK3 by insulin (GSK3): unaffected

Cn1cc(C2=C(c3cn(CCCSC(=N)N)c4ccccc34)C(=O)NC2=O)c2ccccc21 [Ro 318220]
Inhibition of c-Raf1 in vitro (c-Raf1): not inhibited significantly
IC50 (p70 S6 kinase): 15 nM
IC50 (MAPKAP-K1β): 3 nM
IC50 (PK B): 1000 nM
Inhibition of MAPKAP-K2 in vitro (MAPKAP-K2): not inhibited significantly
IC50 (mixed isoforms of PKC): 5 nM
Inhibition of p42 MAP kinase in vitro (p42 MAP kinase): not inhibited significantly
Inhibition of MAPKK-1 in vitro (MAPKK-1): not inhibited significantly

C[S+]([O-])c1ccc(-c2nc(-c3ccncc3)c(-c3ccc(F)cc3)[nH]2)cc1 (centres unmarked) [SB 203580]
Effect on activation of MAPKAP kinase-2 (MAPKAP kinase-2): prevented
Effect on activation of RAC-PKα by insulin or IGF-1 (RAC-PKα [2]): had no effect

HA-308A RAC-PKα: HA-tagged RAC-PKα with Thr308 changed to Ala
Activity as percentage of unstimulated WT enzyme (RAC-PKα [3]): about 40%

HA-308D/473D RAC-PK: RAC-PKα with both Thr308 and Ser473 mutated to Asp, constitutively active
Activity relative to unstimulated (dephosphorylated) WT HA-RAC-PKα (RAC-PKα [4]): 18 fold
Increase in GSK3 activity on PP2A treatment (GSK3β): 85%
Activity relative to WT HA-RAC-PKα in unstimulated cells (RAC-PKα [5]): 40 fold
